# Measured values from PMC9299836 (eLife, 2022).
# Several values for one entry are separate records, joined by “and”; a condition that tells them apart may be missing. Equal entries are not always repeated.
# Legend:
# mGluR2 [1] = target: mGluR2 (Mus musculus, UniProt Q14BI2, A548F); experiment: Live-cell FRET, azi-CRD (cysteine-rich domain) sensor in HEK293T cells; conditions: for azi-CRD normalized FRET response, Mean / azi-CRD normalized FRET response, individual cell: Glutamate + 10μM modulator (NAM); for azi-CRD normalized FRET response, Mean: maximal response normalized to 1mM glutamate; for azi-CRD normalized FRET response, individual cell: single-cell replicate
# Sequence of mGluR2 (Mus musculus, UniProt Q14BI2, A548F) (Q14BI2 19-872 A548F): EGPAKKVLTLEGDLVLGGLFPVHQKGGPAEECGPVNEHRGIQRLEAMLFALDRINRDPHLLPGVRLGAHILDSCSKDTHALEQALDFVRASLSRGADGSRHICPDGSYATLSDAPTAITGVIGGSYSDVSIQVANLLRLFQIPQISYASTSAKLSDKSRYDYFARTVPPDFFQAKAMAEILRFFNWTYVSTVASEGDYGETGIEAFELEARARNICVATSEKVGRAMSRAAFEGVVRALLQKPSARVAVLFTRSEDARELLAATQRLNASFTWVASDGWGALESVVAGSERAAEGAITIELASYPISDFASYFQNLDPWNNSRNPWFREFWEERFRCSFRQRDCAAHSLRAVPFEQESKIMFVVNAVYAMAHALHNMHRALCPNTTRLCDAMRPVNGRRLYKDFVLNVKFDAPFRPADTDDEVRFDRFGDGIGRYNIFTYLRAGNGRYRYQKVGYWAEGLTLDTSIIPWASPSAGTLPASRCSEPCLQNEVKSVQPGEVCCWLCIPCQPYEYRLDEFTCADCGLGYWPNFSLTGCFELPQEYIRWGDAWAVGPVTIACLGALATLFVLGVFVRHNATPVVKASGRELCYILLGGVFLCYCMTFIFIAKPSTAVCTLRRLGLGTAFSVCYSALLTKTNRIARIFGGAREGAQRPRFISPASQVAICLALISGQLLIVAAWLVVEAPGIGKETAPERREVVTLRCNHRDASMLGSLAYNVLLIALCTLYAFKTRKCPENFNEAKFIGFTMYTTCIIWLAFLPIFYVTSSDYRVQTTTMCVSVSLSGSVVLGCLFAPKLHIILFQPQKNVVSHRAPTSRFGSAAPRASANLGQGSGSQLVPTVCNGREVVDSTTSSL
# mGluR2 [2] = target: T1, mGluR2 (Mus musculus, UniProt Q14BI2); experiment: Live-cell FRET, SNAP-m2 (VFT domain) inter-subunit sensor in HEK293T cells; conditions: for Mean normalized FRET response, SNAP-m2 NAM DRC: glutamate + 10μM modulator, maximal response normalized to 1mM glutamate;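 for all read-outs here: apparent FRET efficiency from whole-membrane ROIs of single cells, corrected for donor bleed-through and background, ΔFRET as treatment minus pretreatment signal, recorded at room temperature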
# T1 sequence (Q14BI2 19-872): as the sequence (Q14BI2 19-872 A548F) above, with F530A counted along it
# mGluR2 [3] = target: mGluR2 (Mus musculus, UniProt Q14BI2, INS715F); experiment: Live-cell FRET, azi-ECL2 (7TM domain, extracellular loop 2) sensor in HEK293T cells; conditions: for Mean normalized azi-ECL2 FRET response: glutamate + 10μM modulator, maximal response normalized to 1mM glutamate;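 for all read-outs here: Cy3/Cy5 click-labeled sensor, whole-membrane ROIs per cell, apparent FRET after bleed-through correction, ΔFRET as treatment minus pre-treatment signal, at room temperature, at least three biological replicates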
# Sequence of mGluR2 (Mus musculus, UniProt Q14BI2, INS715F) (Q14BI2 with tags, fused parts or gaps INS715F): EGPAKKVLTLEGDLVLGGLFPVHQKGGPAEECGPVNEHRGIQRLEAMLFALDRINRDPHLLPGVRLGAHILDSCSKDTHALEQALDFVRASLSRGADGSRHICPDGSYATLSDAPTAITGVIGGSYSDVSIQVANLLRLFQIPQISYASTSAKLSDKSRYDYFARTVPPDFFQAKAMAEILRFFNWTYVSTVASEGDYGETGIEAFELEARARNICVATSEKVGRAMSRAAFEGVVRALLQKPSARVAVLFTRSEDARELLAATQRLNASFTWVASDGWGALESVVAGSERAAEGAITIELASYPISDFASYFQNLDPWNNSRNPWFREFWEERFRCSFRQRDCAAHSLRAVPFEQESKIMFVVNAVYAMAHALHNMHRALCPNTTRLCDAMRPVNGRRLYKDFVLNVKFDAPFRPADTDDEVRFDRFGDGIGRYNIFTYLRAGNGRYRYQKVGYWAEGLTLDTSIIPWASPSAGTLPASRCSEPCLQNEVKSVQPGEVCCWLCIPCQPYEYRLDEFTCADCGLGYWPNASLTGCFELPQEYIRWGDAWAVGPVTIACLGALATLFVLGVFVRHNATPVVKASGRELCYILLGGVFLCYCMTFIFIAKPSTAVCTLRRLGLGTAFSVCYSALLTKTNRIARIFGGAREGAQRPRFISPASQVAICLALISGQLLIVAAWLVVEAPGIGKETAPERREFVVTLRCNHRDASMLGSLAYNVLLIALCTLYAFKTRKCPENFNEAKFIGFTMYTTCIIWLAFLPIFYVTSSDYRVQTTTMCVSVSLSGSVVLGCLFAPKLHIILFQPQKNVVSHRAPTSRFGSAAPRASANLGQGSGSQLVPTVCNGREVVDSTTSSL
# mGluR2 [4] = target: T1, mGluR2; experiment: Functional calcium imaging, SNAP-mGluR2 (no FLAG-tag) with chimeric G protein Gqo5 in HEK293T cells; type: cell-based; design: Full length mGluR2 construct with an amber codon (TAG) mutation of amino acid A548 (azi-CRD) or N-terminal SNAP-tag (SNAP-mGluR2); host or cells: HEK293T; conditions: for Intracellular Ca2+ Response (normalized to 1mM glutamate), Mean: Glutamate + 15nM MNI-137
# [5] = 10μM MNI-137, ([1 mM glutamate + modulator] - [1 mM glutamate]) × 100
substance,measurement,setting,value
MNI-137,"azi-CRD - ΔEfficacy, Mean ΔEfficacy",mGluR2 [1]; [5],-14.0141
same,"azi-CRD - ΔEfficacy, individual cell responses","mGluR2 [1]; 10μM MNI-137, single cells",-19.4456 and -7.384 and -10.1516 and 1.621 and -9.317 and -10.1717 and -14.3919 and -15.5722 and -14.8125 and -10.0435 and -13.9489 and -17.5047 and -9.853 and -8.072 and -15.0625 and -34.4877 and -19.6812 and -23.9757
same,"azi-CRD normalized FRET response, Mean",mGluR2 [1]; log[Glutamate] (M) -3,0.8599
same,"azi-CRD normalized FRET response, Mean",mGluR2 [1]; log[Glutamate] (M) -4.52288,0.6022
same,"azi-CRD normalized FRET response, Mean",mGluR2 [1]; log[Glutamate] (M) -5,0.3809
same,"azi-CRD normalized FRET response, Mean",mGluR2 [1]; log[Glutamate] (M) -5.39794,0.1786
same,"azi-CRD normalized FRET response, individual cell",mGluR2 [1]; log[Glutamate] (M) -5.39794,0.1624 and 0.1634 and 0.1646 and 0.1674 and 0.1243 and 0.1237 and 0.1526 and 0.2062 and 0.1399 and 0.1742 and 0.1692 and 0.2509 and 0.1433 and 0.1979 and 0.2166 and 0.2171 and 0.2594 and 0.1653 and 0.2159 and 0.1911 and 0.1708 and 0.1695 and 0.153
same,"azi-CRD normalized FRET response, Mean",mGluR2 [1]; log[Glutamate] (M) -5.82391,0.06813
same,"azi-CRD normalized FRET response, individual cell",mGluR2 [1]; log[Glutamate] (M) -5.82391,0.04445 and 0.05893 and 0.04553 and 0.06348 and 0.04636 and 0.04299 and 0.07924 and 0.06124 and 0.04784 and 0.04123 and 0.06211 and 0.06632 and 0.1186 and 0.05696 and 0.08797 and 0.1273 and 0.06713 and 0.0889 and 0.0871 and 0.09832 and 0.05971 and 0.05629 and 0.07113 and 0.07112 and 0.06208 and 0.06258 and 0.06477
same,"azi-CRD normalized FRET response, Mean",mGluR2 [1]; log[Glutamate] (M) -6.52288,0.03124
same,"azi-CRD normalized FRET response, individual cell",mGluR2 [1]; log[Glutamate] (M) -6.52288,0.0188 and 0.01987 and 0.01609 and 0.02693 and 0.05479 and 0.05033 and 0.00719 and 0.0225 and 0.06219 and 0.01914 and 0.02051 and 0.02647 and 0.05278 and 0.03127 (2×) and 0.02714 and 0.04081 and 0.0402 and 0.04434 and 0.02897 and 0.03138 and 0.03664 and 0.02295
same,"azi-CRD normalized FRET response, Mean",mGluR2 [1]; log[Glutamate] (M) -7,0
same,"azi-CRD normalized FRET response, individual cell",mGluR2 [1]; log[Glutamate] (M) -7,0
same,Hill slope of glutamate titration,"mGluR2 [1]; azi-CRD sensor, + 10 μM modulator",1.10
same,Live-cell FRET max response normalized to 1mM glutamate,"mGluR2 [1]; azi-CRD sensor, Glutamate + 10μM MNI-137, individual values (N=18)",0.9068 and 0.8983 and 0.8561 and 0.8443 and 0.8519 and 0.8996 and 0.8605 and 0.8249 and 0.9015 and 0.9193 and 0.8494 and 0.6551 and 0.8032 and 0.7602 and 0.8055 and 0.9262 and 0.8985 and 1.016
same,Mean max response (normalized max ΔFRET),"mGluR2 [1]; azi-CRD, 1 mM glutamate + 10 μM modulator, normalized to 1 mM glutamate",0.86
same,Mean ΔPotency,"mGluR2 [1]; azi-CRD, 10μM modulator, (([modulator + glutamate]EC50 – [glutamate] EC50)/[glutamate] EC50) × 100",19.3799
same,"ΔPotency, individual cell","mGluR2 [1]; azi-CRD, 10μM modulator, calculated from individual cell responses",8.099 and 2.046 and -1.414 and 21.9358 and 9.829 and 20.2062 and 22.8006 and -4.008 and 2.91 and 8.964 and 24.5302 and 18.4766 and 6.37 and 10.6935 and 59.9867 and 17.6119 and -18.5365 and 122.252 and 0.316 and -3.143 and -10.9263 and 95.4432 and 15.0175
same,"SNAP-m2 - ΔEfficacy, Mean ΔEfficacy",mGluR2 [2]; [5],-14.5253
same,"SNAP-m2 - ΔEfficacy, individual cell responses","mGluR2 [2]; 10μM MNI-137, single cells",-10.7213 and -26.7573 and -13.8479 and -17.3754 and -14.1858 and -21.1325 and -12.0197 and -12.3419 and -6.834 and -6.212 and -2.3686 and -0.3026 and -3.79 and -23.2696 and -18.431 and -18.5097 and -23.731 and -16.2088 and -24.4772 and -17.7281 and -7.524 and -21.7885
same,Mean max response (normalized max ΔFRET),"mGluR2 [2]; SNAP-m2, 1 mM glutamate + 10 μM modulator, normalized to 1 mM glutamate",0.85
same,Mean ΔPotency,"mGluR2 [2]; SNAP-m2, 10μM modulator, (([modulator + glutamate]EC50 – [glutamate] EC50)/[glutamate] EC50) × 100",44.8085
same,Mean ΔEfficacy,"mGluR2 [2]; SNAP-m2, 10μM modulator, ([1 mM glutamate + modulator] - [1 mM glutamate]) × 100",-14.5253
same,Hill slope of glutamate titration,"mGluR2 [2]; SNAP-m2 sensor, + 10 μM modulator",–1.61
same,Live-cell FRET max response normalized to 1mM glutamate,"mGluR2 [2]; SNAP-m2 sensor, Glutamate + 10μM MNI-137, individual values (N=22)",0.8581 and 0.7887 and 0.8798 and 0.8766 and 0.9317 and 0.9379 and 0.9763 and 0.997 and 0.9621 and 0.7673 and 0.8157 and 0.8149 and 0.7627 and 0.8379 and 0.7552 and 0.8227 and 0.9248 and 0.7821 and 0.8928 and 0.7324 and 0.8615 and 0.8263
same,"Mean normalized FRET response, SNAP-m2 NAM DRC",mGluR2 [2]; log[Glutamate] (M) -3,-0.8548
same,"Mean normalized FRET response, SNAP-m2 NAM DRC",mGluR2 [2]; log[Glutamate] (M) -4.1549,-0.777
same,"Mean normalized FRET response, SNAP-m2 NAM DRC",mGluR2 [2]; log[Glutamate] (M) -4.52288,-0.6231
same,"Mean normalized FRET response, SNAP-m2 NAM DRC",mGluR2 [2]; log[Glutamate] (M) -5,-0.2568
same,"Mean normalized FRET response, SNAP-m2 NAM DRC",mGluR2 [2]; log[Glutamate] (M) -5.82391,-0.04212
same,"Mean normalized FRET response, SNAP-m2 NAM DRC",mGluR2 [2]; log[Glutamate] (M) -6.52288,0
same,"Mean normalized FRET response, SNAP-m2 NAM DRC",mGluR2 [2]; log[Glutamate] (M) -7,0
same,"Mean normalized FRET response, SNAP-m2 NAM DRC",mGluR2 [2]; log[Glutamate] (M) -7.69897,0
same,"Mean normalized FRET response, SNAP-m2 NAM DRC",mGluR2 [2]; log[Glutamate] (M) -4.69897,-0.4828
same,"azi-ECL2 - ΔEfficacy, Mean ΔEfficacy",mGluR2 [3]; [5],-22.0861
same,Mean ΔPotency,"mGluR2 [3]; 10μM modulator, (([modulator + glutamate]EC50 – [glutamate] EC50)/[glutamate] EC50) × 100",179.936
same,"ΔPotency, individual cell responses","mGluR2 [3]; 10μM modulator, single cells, (([modulator + glutamate]EC50 – [glutamate] EC50)/[glutamate] EC50) × 100",208.526 and 269.842 and 265.754 and 289.307 and 19.9066 and 99.1307 and 118.401 and 168.622
same,Mean max response (normalized max ΔFRET),"mGluR2 [3]; azi-ECL2, 1 mM glutamate + 10 μM modulator, normalized to 1 mM glutamate",0.78
same,Hill slope of glutamate titration,"mGluR2 [3]; azi-ECL2 sensor, + 10 μM modulator",1.32
same,Mean normalized azi-ECL2 FRET response,mGluR2 [3]; log[Glutamate] (M) -3,0.7791
same,Mean normalized azi-ECL2 FRET response,mGluR2 [3]; log[Glutamate] (M) -4.1549,0.6793
same,Mean normalized azi-ECL2 FRET response,mGluR2 [3]; log[Glutamate] (M) -4.52288,0.5808
same,Mean normalized azi-ECL2 FRET response,mGluR2 [3]; log[Glutamate] (M) -5,0.314
same,Mean normalized azi-ECL2 FRET response,mGluR2 [3]; log[Glutamate] (M) -5.82391,0.01822
same,Mean normalized azi-ECL2 FRET response,mGluR2 [3]; log[Glutamate] (M) -6.52288,0
same,Mean normalized azi-ECL2 FRET response,mGluR2 [3]; log[Glutamate] (M) -7,0
same,Mean normalized azi-ECL2 FRET response,mGluR2 [3]; log[Glutamate] (M) -7.69897,0
same,Mean normalized azi-ECL2 FRET response,mGluR2 [3]; log[Glutamate] (M) -4.69897,0.4672
same,Effect on receptor activation (calcium imaging) in the presence of glutamate,mGluR2 [4]; 10 μM NAM,block receptor activation
same,"Intracellular Ca2+ Response, % 1mM Glutamate","mGluR2 [4]; 1mM Glutamate + 15nM MNI-137, individual experiments",73.406% and 76.302% and 82.093%
same,Mean ΔEfficacy of glutamate,"mGluR2 [4]; Ca2+ response, 1 mM glutamate + 15 nM modulator, ([1 mM glutamate + modulator] - [1 mM glutamate]) × 100",-22.7329
same,"ΔEfficacy of glutamate, individual experiments","mGluR2 [4]; Ca2+ response, 1 mM glutamate + 15 nM modulator, single replicate",-23.6976 and -17.9069 and -26.5942
same,Mean ΔPotency of glutamate,"mGluR2 [4]; Ca2+ response, glutamate + 15 nM modulator, (([modulator + glutamate]EC50 – [glutamate]EC50)/[glutamate]EC50) × 100",30.7718
same,"ΔPotency of glutamate, individual experiments","mGluR2 [4]; Ca2+ response, glutamate + 15 nM modulator, single replicate",55.4467 and 26.9701 and 9.898
same,"Intracellular Ca2+ Response (normalized to 1mM glutamate), Mean",mGluR2 [4]; log[Glutamate] (M) -3,0.7727
same,"Intracellular Ca2+ Response (normalized to 1mM glutamate), Mean",mGluR2 [4]; log[Glutamate] (M) -3.60206,0.7226
same,"Intracellular Ca2+ Response (normalized to 1mM glutamate), Mean",mGluR2 [4]; log[Glutamate] (M) -4.1549,0.6149
same,"Intracellular Ca2+ Response (normalized to 1mM glutamate), Mean",mGluR2 [4]; log[Glutamate] (M) -4.52288,0.4711
same,"Intracellular Ca2+ Response (normalized to 1mM glutamate), Mean",mGluR2 [4]; log[Glutamate] (M) -5,0.2107
same,"Intracellular Ca2+ Response (normalized to 1mM glutamate), Mean",mGluR2 [4]; log[Glutamate] (M) -5.39794,0.08277
same,"Intracellular Ca2+ Response (normalized to 1mM glutamate), Mean",mGluR2 [4]; log[Glutamate] (M) -5.82391,0.01181
same,"Intracellular Ca2+ Response (normalized to 1mM glutamate), Mean",mGluR2 [4]; log[Glutamate] (M) -6.52288,0
same,"Intracellular Ca2+ Response (normalized to 1mM glutamate), Mean",mGluR2 [4]; log[Glutamate] (M) -7,0
